Laboratory results from US20130203817A1, “Novel Inhibitors of LYN Kinase” (VASSA INFORMATICS, priority 2012, published 2013).

What was measured:
[1] = test system: phosphorylated (activated) LYN; conditions: BT549 cells, Western blot; cited from earlier work
[2] = test system: mesenchymal breast cancer lines; conditions: at concentrations that inhibit LYN kinase activity; cited from earlier work
[3] = biological target: GSK3β kinase (Homo sapiens, UniProt P49841); assay: Kinase profiling, GSK3β; assay type: biochemical; conditions: VI201 at 100 μM
Sequence of GSK3β kinase (P49841 whole entry): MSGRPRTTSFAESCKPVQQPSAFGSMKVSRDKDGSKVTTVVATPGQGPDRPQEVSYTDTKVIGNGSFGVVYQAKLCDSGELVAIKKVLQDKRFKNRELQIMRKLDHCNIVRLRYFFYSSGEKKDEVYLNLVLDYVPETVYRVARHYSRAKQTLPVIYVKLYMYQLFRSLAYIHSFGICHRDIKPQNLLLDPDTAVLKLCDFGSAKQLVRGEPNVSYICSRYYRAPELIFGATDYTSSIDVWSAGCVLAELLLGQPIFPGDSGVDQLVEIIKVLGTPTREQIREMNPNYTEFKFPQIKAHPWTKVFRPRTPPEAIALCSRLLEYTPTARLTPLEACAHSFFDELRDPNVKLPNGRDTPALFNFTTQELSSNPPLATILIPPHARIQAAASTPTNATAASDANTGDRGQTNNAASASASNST
Protocol: (§1) The three compounds identified in Example 1 were tested for kinase activity at Millipore (Dundee UK). The compounds were shipped as 10 mM stocks in DMSO as per Millipore testing standards. The testing consisted of two initial phases:
(§2) (a) Profiling against a set of approximately 60 kinases, selected as representative of all kinases and current kinase drug targets, to determine the selectivity of the compounds; and, (b) IC50 testing against EGFR, the kinase target of the initial search template molecule.

[4] = biological target: WNK3(h) (Homo sapiens, UniProt Q9BYP7); assay: Millipore kinase profiling, WNK3; assay type: biochemical; conditions: VI201 at 100 μM
Sequence of WNK3(h) (Q9BYP7 whole entry): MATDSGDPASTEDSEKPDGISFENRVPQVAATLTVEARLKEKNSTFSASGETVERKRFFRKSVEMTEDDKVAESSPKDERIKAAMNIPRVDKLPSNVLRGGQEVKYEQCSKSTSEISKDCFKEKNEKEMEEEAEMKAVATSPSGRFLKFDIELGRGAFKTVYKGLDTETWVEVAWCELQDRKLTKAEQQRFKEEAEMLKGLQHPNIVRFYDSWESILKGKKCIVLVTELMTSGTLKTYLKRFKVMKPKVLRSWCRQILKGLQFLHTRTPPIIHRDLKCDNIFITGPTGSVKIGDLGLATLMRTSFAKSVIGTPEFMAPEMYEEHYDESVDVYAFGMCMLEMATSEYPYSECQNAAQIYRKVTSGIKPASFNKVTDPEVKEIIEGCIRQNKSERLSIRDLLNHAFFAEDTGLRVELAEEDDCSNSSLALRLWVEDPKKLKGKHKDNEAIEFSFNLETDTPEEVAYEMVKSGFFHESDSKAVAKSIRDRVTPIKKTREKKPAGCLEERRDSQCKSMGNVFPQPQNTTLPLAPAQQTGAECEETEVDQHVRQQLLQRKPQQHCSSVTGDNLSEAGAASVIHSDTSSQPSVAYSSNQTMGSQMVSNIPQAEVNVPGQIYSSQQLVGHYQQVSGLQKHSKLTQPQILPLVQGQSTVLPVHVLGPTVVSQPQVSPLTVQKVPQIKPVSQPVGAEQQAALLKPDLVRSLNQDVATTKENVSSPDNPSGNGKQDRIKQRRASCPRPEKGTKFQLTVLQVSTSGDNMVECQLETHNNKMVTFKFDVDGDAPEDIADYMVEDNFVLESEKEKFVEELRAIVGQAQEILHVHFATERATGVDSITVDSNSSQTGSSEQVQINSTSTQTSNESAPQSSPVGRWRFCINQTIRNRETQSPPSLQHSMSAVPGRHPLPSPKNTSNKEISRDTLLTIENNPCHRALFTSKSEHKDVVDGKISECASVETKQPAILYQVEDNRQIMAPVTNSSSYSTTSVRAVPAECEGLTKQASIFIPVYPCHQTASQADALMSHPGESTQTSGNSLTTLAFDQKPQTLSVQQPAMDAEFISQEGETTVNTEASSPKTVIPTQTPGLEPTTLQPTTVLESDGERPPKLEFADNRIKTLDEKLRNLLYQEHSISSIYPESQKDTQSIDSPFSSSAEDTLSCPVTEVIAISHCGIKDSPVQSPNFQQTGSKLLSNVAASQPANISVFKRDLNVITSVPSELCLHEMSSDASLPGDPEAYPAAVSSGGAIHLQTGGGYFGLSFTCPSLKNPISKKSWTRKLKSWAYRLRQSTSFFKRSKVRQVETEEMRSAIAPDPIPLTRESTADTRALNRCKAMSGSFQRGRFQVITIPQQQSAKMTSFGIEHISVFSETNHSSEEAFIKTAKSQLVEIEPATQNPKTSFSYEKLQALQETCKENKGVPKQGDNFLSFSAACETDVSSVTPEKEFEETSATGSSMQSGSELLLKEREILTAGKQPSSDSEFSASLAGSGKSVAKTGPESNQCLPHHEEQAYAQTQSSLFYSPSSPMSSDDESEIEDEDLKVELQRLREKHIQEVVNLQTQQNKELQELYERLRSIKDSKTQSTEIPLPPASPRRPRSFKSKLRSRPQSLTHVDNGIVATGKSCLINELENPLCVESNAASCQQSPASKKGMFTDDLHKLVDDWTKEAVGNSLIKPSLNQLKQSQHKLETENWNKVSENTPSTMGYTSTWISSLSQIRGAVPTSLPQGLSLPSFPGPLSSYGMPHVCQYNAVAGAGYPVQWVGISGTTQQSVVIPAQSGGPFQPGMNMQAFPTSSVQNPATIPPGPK
Protocol: as §1, §2
(§3) In particular, compound VI201 inhibited three kinases, in one case restricting the activity to about 20% at 100 μM concentration (Table 1).

[5] = biological target: Pim-1(h) (Homo sapiens, UniProt P11309); assay: Millipore kinase profiling, Pim-1; assay type: biochemical; conditions: VI201 at 100 μM
Sequence of Pim-1(h) (P11309 whole entry): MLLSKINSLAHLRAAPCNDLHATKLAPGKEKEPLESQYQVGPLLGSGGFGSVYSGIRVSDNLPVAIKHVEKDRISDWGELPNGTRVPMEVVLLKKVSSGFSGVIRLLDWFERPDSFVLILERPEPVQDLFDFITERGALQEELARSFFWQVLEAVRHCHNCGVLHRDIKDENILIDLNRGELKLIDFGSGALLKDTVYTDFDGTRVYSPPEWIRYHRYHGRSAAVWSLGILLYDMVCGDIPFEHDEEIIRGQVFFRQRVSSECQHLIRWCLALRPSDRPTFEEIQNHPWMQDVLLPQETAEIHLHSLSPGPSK
Protocol: as §1, §2, §3

[6] = biological target: Abl kinase (BCR-Abl) (Homo sapiens, UniProt P00519); assay: Kinase profiling, Abl; assay type: biochemical; conditions: VI201 at 100 μM
Sequence of Abl kinase (BCR-Abl) (P00519 27-1130 limits assumed): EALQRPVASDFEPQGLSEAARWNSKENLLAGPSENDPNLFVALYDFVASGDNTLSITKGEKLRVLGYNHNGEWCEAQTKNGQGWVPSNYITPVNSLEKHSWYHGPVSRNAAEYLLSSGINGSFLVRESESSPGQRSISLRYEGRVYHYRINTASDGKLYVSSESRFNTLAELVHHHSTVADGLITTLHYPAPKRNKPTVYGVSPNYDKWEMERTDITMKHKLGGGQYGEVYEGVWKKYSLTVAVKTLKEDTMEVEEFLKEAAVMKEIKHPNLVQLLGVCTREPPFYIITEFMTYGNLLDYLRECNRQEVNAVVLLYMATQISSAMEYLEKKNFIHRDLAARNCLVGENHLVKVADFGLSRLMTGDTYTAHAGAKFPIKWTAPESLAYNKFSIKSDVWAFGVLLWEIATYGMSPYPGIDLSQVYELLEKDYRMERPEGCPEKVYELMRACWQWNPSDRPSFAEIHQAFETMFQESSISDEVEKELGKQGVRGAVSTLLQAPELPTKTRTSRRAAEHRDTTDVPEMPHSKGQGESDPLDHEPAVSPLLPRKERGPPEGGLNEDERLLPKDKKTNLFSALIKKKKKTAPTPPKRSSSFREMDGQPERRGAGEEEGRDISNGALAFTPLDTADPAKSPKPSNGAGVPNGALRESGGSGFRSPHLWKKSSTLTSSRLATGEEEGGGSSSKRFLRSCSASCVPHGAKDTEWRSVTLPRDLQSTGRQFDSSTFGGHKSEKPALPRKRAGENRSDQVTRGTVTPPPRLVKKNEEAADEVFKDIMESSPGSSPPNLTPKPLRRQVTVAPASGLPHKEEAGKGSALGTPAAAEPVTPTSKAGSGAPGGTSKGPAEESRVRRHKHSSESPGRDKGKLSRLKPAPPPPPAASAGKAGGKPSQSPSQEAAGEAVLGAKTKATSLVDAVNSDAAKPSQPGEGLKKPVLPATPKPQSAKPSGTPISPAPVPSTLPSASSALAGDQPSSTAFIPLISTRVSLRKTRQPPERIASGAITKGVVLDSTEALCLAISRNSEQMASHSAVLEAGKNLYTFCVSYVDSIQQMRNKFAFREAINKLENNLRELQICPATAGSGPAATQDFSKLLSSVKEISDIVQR
Protocol: as §1, §2

[7] = biological target: Lyn(h) (Homo sapiens, UniProt P07948); assay: Millipore kinase profiling, Lyn; assay type: biochemical; conditions: VI201 at 100 μM
Sequence of Lyn(h) (P07948 1-491 isoform P07948-2): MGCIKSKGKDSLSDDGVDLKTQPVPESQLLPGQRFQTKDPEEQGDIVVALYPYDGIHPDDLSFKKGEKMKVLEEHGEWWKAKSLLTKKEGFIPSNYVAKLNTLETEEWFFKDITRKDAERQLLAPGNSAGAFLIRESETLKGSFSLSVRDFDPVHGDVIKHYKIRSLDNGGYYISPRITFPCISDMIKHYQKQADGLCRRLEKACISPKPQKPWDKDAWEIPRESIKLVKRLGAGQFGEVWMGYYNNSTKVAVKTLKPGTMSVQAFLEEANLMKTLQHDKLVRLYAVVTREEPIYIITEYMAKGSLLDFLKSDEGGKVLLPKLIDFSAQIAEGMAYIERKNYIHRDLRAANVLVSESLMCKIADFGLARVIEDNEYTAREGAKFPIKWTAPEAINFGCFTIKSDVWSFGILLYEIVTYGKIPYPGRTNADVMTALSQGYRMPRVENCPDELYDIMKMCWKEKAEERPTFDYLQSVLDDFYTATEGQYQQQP
Protocol: as §1, §2, §3

Molecule | phosphorylated (activated) LYN [1] | cell invasion [2] | cell proliferation [2] | inhibition of GSK3β kinase [3] [%] | inhibition of WNK3 kinase [4] [%] | inhibition of Pim-1 kinase [5] [%] | inhibition of Abl kinase (BCR-Abl) [6] [%] | inhibition of LYN kinase [7] [%]
Cc1nc(Nc2ncc(C(=O)Nc3c(C)cccc3Cl)s2)cc(N2CCN(CCO)CC2)n1 [Dasatinib, N-(2-chloro-6-methylphenyl)-2-[[6-[4-(2-hydroxyethyl)-1-piperazinyl]-2-methyl-4-pyrimidinyl]amino]-5-thiazole carboxamide] | decreased phosphorylated (activated) LYN | blocked invasion | not proliferation | – | – | – | – | –
N-(2,3-dimethylphenyl)-3-(3-(pyridin-2-yl)-1,2,4-thiadiazol-5-yl)propanamide [VI201] | – | – | – | 26 | 37 | 44 | 5 | 82
